The values below come from ChEMBL document CHEMBL3091398, “Anthranilic acid-based Thumb Pocket 2 HCV NS5B polymerase inhibitors with sub-micromolar potency in the cell-based replicon assay” (Bioorg Med Chem Lett, 2013).

The test system of series [1] is Hepatitis C virus. Kind of series: Antiviral activity against HCV genotype 1b by cell-based luciferase reporter gene assay. Format: functional, organism-based, Hepacivirus hominis.
Series [2] can be described thus: Inhibition of HCV genotype 1b NS5B delta21 polymerase. Further details: species or system Hepatitis C virus subtype 1b.
A short description of series [3]: Half life in rat liver microsomes at 2 uM. Format: ADME.
The nature of series [4]: Half life in human liver microsomes at 2 uM. Format: ADME. (In general: Microsomes from liver hold many membrane-bound enzymes, among them those of drug oxidation.)
The nature of series [5]: Solubility of the compound at pH 2 after 24 hrs by shake-flask method. Format: physicochemical. The settings on record: buffer, pH 2, 24 h.
The nature of series [6]: Dissociation constant, pKa of the compound. Format: physicochemical.
Series [7] in a line: Permeability across apical to basolateral side in human Caco2 cells. Format: ADME, cell-based. Particulars: Caco-2, read-out: permeability.
Series [8] in a line: Lipophilicity, log D of the compound at pH 7.4. Format: physicochemical. The settings on record: buffer.

Bounds are passed on as bounds.

With `CC(C)N(c1ccc(Oc2ccccc2C2CC2)cc1C(=O)O)C(=O)[C@H]1CC[C@H](C)CC1`, in series [1], the EC50 was determined as 4300 nM. Further, half-maximal inhibition in series [2] (IC50) was put at 330 nM.
In turn, `CC(C)N(c1ccc(Oc2ccccc2C(F)F)cc1C(=O)O)C(=O)[C@H]1CC[C@H](C)CC1` came in with an EC50 in series [1] of 1100 nM. For the same compound, the IC50 in series [2] worked out at 200 nM.
Turning to `O=C(O)c1cccc(Oc2ccc(C(=O)O)c(NS(=O)(=O)c3ccc(Br)s3)c2)c1`, the IC50 in series [2] is 1400 nM.
The compound `O=C(O)c1cc(Oc2ccccc2)ccc1NS(=O)(=O)c1ccc(Br)cc1F` displayed an EC50 in series [1] of over 30000 nM. Besides, in series [2], it took 340 nM to reach half-maximal inhibition (IC50).
Take `Cc1ccc(Oc2ccc(C(=O)O)c(NS(=O)(=O)c3ccc(Br)s3)c2)cc1`: half-maximal inhibition in series [2] (IC50) was put at 1900 nM.
Take `CC(C)N(c1cc(Oc2ccccc2)ccc1C(=O)O)C(=O)[C@H]1CC[C@H](C)CC1`: in series [1], a half-maximal effect (EC50) was put at 11000 nM. This compound also yielded an IC50 in series [2] of 740 nM.
Consider `CC[C@H]1CC[C@H](C(=O)N(c2cc(Oc3ccccc3)ccc2C(=O)O)C(C)C)CC1`, for which, in series [1], the EC50 is over 40000 nM. The same compound gave an IC50 in series [2] of 4300 nM.
Turning to `CC(C)N(c1ccc(Oc2ncccc2C(F)(F)F)cc1C(=O)O)C(=O)[C@H]1CC[C@H](C)CC1`, the figures for the half-life at 2 µM in series [3] and in series [4] were 1 h and 1.15 h, respectively. Besides, in series [5], the solubility was under 0.1 µg/mL. In series [2], this compound showed an IC50 of 80 nM.
The compound `Cc1ccc(S(=O)(=O)Nc2ccc(Oc3ccc(C(=O)O)cc3)cc2C(=O)O)cc1` came in with an EC50 in series [1] of over 30000 nM. Moreover, the IC50 in series [2] was determined as 85 nM.
As to `CC(C)N(c1cc(Oc2ccccc2)ccc1C(=O)O)C(=O)[C@H]1CC[C@H](C(F)(F)F)CC1`, the EC50 in series [1] was determined as 16000 nM. This compound gave an IC50 in series [2] of 1300 nM.
Taken in the same sequence, the figures for `Cc1ccc(S(=O)(=O)Nc2ccc(Oc3cccc(C(=O)O)c3)cc2C(=O)O)cc1` were over 30000 nM and 330 nM.
In series [1], `O=C(O)c1ccc(Oc2ccccc2)cc1NS(=O)(=O)c1ccc(Br)s1` registered an EC50 of over 25000 nM. The same compound showed an IC50 in series [2] of 610 nM.
As to `CC(C)N(c1ccc(Oc2ccccc2)cc1C(=O)O)C(=O)[C@H]1CC[C@H](C)CC1`, the EC50 in series [1] turned out to be 5000 nM. Further, the IC50 in series [2] came out at 670 nM.
Taken in the same sequence, the figures for `CC(C)N(c1ccc(Oc2cccc(C(F)(F)F)c2)cc1C(=O)O)C(=O)[C@H]1CC[C@H](C)CC1` were 6300 nM and 470 nM.
Taken in the same sequence, the figures for `CC(C)N(C(=O)c1ccc(Br)cc1F)c1cc(Oc2ccccc2)ccc1C(=O)O` were over 10000 nM and 1400 nM.
For the compound `Cc1ccc(S(=O)(=O)Nc2ccc(OC3CCCC3)cc2C(=O)O)cc1`, the EC50 in series [1] is 8600 nM. This compound registered an IC50 in series [2] of 210 nM.
In series [1], `CC(=O)Nc1ccc(Oc2ccc(NS(=O)(=O)c3ccc(C)cc3)c(C(=O)O)c2)cc1` came in with an EC50 of 30000 nM. In series [2], this compound yielded an IC50 of 290 nM.
In series [1], `CC[C@H]1CC[C@H](C(=O)N(c2ccc(Oc3ccccc3)cc2C(=O)O)C(C)C)CC1` had an EC50 of 25000 nM. Moreover, half-maximal inhibition in series [2] (IC50) required 1300 nM.
In the case of `CC(C)N(c1ccc(Oc2ccccc2C(F)(F)F)cc1C(=O)O)C(=O)[C@H]1CC[C@H](C)CC1`, the pKa in series [6] came to 5.5. This compound showed a half-life at 2 µM in series [3] of 1.3 h. The Papp A→B in series [7] stood at 15 ×10⁻⁶ cm/s. The solubility in series [5] was under 0.1 µg/mL. The compound further had a logD in series [8] of 2.9. In addition, 190 nM corresponded to half-maximal inhibition in series [2] (IC50).
The compound `CC(C)N(c1ccc(Oc2ccncc2C(F)(F)F)cc1C(=O)O)C(=O)[C@H]1CC[C@H](C)CC1` gave a 50% effective concentration (EC50) in series [1] of 170 nM. The compound further had an IC50 in series [2] of 190 nM.
On to `CC(C)N(c1ccc(Oc2ccccc2)cc1C(=O)O)C(=O)[C@H]1CC[C@H](C(F)(F)F)CC1`, for which, in series [1], the EC50 was 16000 nM. Besides, half-maximal inhibition in series [2] (IC50) was put at 2000 nM.
`Cc1ccc(S(=O)(=O)Nc2ccc(Oc3ccccc3OC(F)(F)F)cc2C(=O)O)cc1`: the EC50 in series [1] amounted to 7000 nM. For the same compound, half-maximal inhibition in series [2] (IC50) was put at 370 nM.
With `Cc1ccc(S(=O)(=O)Nc2ccc(Oc3cccc(C)c3)cc2C(=O)O)cc1`, the EC50 in series [1] is over 30000 nM. The same compound registered an IC50 in series [2] of 470 nM.
Taken in the same sequence, the figures for `CC(C)N(c1cc(OC2CCCC2)ccc1C(=O)O)C(=O)[C@H]1CC[C@H](C)CC1` were over 50000 nM and over 40000 nM.
`CC(C)N(c1ccc(OC2CCCC2)cc1C(=O)O)C(=O)[C@H]1CC[C@H](C)CC1`: the EC50 in series [1] was 1000 nM. In series [2], this compound returned an IC50 of 460 nM.
In series [1], `O=C(O)c1ccc(Oc2ccccc2C(F)(F)F)cc1NS(=O)(=O)c1ccc(Br)s1` displayed an EC50 of over 30000 nM. The compound further registered an IC50 in series [2] of 3000 nM.
`Cc1ccc(S(=O)(=O)Nc2cc(Oc3ccccc3)ccc2C(=O)O)cc1` showed an EC50 in series [1] of over 30000 nM. This compound also came in with an IC50 in series [2] of 160 nM.
`CC(C)N(c1ccc(Oc2ccccc2C(C)(F)F)cc1C(=O)O)C(=O)[C@H]1CC[C@H](C)CC1` came in with an EC50 in series [1] of 620 nM. Moreover, 300 nM corresponded to half-maximal inhibition in series [2] (IC50).
In series [1], `CC(C)N(c1ccc(Oc2ccccc2Br)cc1C(=O)O)C(=O)[C@H]1CC[C@H](C)CC1` yielded an EC50 of 4900 nM. The same compound registered an IC50 in series [2] of 450 nM.
For the compound `Cc1ccc(Oc2ccc(NS(=O)(=O)c3ccc(C)cc3)c(C(=O)O)c2)cc1`, in series [1], the EC50 is over 30000 nM. Moreover, 780 nM corresponded to half-maximal inhibition in series [2] (IC50).
`Cc1ccccc1Oc1ccc(C(=O)O)c(NS(=O)(=O)c2ccc(Br)s2)c1` yielded an IC50 in series [2] of 1500 nM.
In the case of `CC(=O)Nc1ccc(Oc2ccc(C(=O)O)c(NS(=O)(=O)c3ccc(Br)s3)c2)cc1`, 2900 nM corresponded to half-maximal inhibition in series [2] (IC50).
On to `O=C(O)c1ccc(Oc2ccc(C(=O)O)c(NS(=O)(=O)c3ccc(Br)s3)c2)cc1`, for which half-maximal inhibition in series [2] (IC50) required 2200 nM.
For `CC(C)N(c1cc(Oc2ccccc2C(F)(F)F)ccc1C(=O)O)C(=O)[C@H]1CC[C@H](C)CC1`, the EC50 in series [1] came to 4500 nM. This compound also came in with an IC50 in series [2] of 1300 nM.
Take `O=C(O)c1ccc(Oc2ccccc2)cc1NS(=O)(=O)c1ccc(Br)cc1F`: the EC50 in series [1] is over 30000 nM. In series [2], inhibition was half-maximal at 310 nM (IC50).
`Cc1cccc(Oc2ccc(C(=O)O)c(NS(=O)(=O)c3ccc(Br)s3)c2)c1`: the IC50 in series [2] amounted to 1100 nM.
Consider `CC(C)N(c1ccc(Oc2ccccc2OC(F)(F)F)cc1C(=O)O)C(=O)[C@H]1CC[C@H](C)CC1`, for which the EC50 in series [1] is 2800 nM. For the same compound, the IC50 in series [2] amounted to 740 nM.
Taken in the same sequence, the figures for `CC(C)N(C(=O)c1ccc(Br)cc1F)c1ccc(Oc2ccccc2)cc1C(=O)O` were over 10000 nM and 1640 nM.
In turn, `Cc1ccc(S(=O)(=O)Nc2ccc(Oc3ccccc3C(F)(F)F)cc2C(=O)O)cc1` returned a half-life at 2 µM in series [4] of 0.2 h. Besides, the Papp A→B in series [7] is 3.6 ×10⁻⁶ cm/s. For the same compound, the EC50 in series [1] was 7300 nM. The IC50 in series [2] was 270 nM.
`Cc1ccc(S(=O)(=O)Nc2ccc(Oc3ccccc3C)cc2C(=O)O)cc1` returned an EC50 in series [1] of over 30000 nM. In series [2], this compound showed an IC50 of 530 nM.
As for `Cc1ccc(S(=O)(=O)Nc2ccc(Oc3ccccc3)cc2C(=O)O)cc1`, the EC50 in series [1] was over 30000 nM. Half-maximal inhibition in series [2] (IC50) was put at 220 nM.

What is called EC50 is the concentration needed to bring the measured effect to its halfway point. Usually IC50 stands for the point on the concentration scale where inhibition reaches its midpoint. One may read the half-life as the time needed for the level to fall by half in the phase considered. A higher half-life goes with slow decline. In general, solubility refers to how much of the substance goes into solution per volume. A higher solubility goes with much dissolved substance. By pKa is commonly meant the pH at which an ionisable group is half protonated. The term logD denotes the decadic logarithm of the distribution of all forms, ionised or not, between an organic phase and buffer at a given pH. Low readings indicate a more hydrophilic compound, high ones a more lipophilic compound.
